Entries after “also recorded” stand apart in the source; their conditions may differ.
Assays:
[1] = test system: adult, female mosquitoes; test: Topical application on adult female mosquitoes (24-h mortality, 1-h knockdown); format: in vivo, mosquito
[2] = test system: house flies; test: Topical application on house flies; details: House Fly Toxicity; topical
[3] = test system: adult house flies; test: Topical application of pogostone derivatives with PBO or plant essential oil on house flies; format: in vivo, house fly; details: house flies
Description: Combinations of select pogostone derivatives with select concentrations of PBO or plant essential oils was performed. […] Synergists were applied as a subsequent application directly after the application of pogostone derivatives. Concentrations of synergists (plant oils or PBO) were chosen that produced no mortality at 24 hours when applied alone.
To assess the ability of PBO to increase the toxicity of a wide variety of pogostone derivatives, PBO and the pogostone derivatives were applied in combination to the pronotum of house flies.
Finally, the potential of plant essential oils to synergize the effect of Formula 30 was assessed.

[4] = test system: two-spotted spider mites; test: Leaf spray/dip test, spider mites (FIG. 4b); format: in vivo, two-spotted spider mite; details: spider mites on dipped soybean leaves, 48 hours
Description: Soybean leaves were removed from a previously uninfested plant and dipped in solution containing water, various concentrations of compounds to be screened, and 0.5% industrial emulsifier. Leaves were allowed to air dry for 30 minutes before the beginning of the assay to assure excess formulation was not present on the treated leaves. Ten two-spotted spider mites or ten soybean aphid adults were gently placed on the top surface of the treated leaves. A minimum of three replicates were performed for each formulation tested in this experiment. Mortality of aphids or spider mites was recorded at 48 hours after their introduction to treated leaves. All treatments were compared to a water+emulsifier control and a thymol+emulsifier control. Data was presented as the average mortality across all replicates along with the standard error of the mean.

[5] = test system: German roaches; test: Spray-cup testing, German roaches (FIG. 3b); format: in vivo, German roach; details: Formula 13 2.5% w/v in water vs thymol 2.5% or 10% w/v
Description: (§1) 10 adults of various arthropod species used for this characterization were placed into 8 oz. ice cream cups with tulle placed over the top to prevent the escape of arthropods from the container. Test formulations were added to spray bottles ([…]™) and applied at the same distance and spray number to eliminate variation between manufacturer spray bottles. For all experiments, spray bottles were set to mist in order to prevent excess formulation from accumulating in the cups. […] Mortality was recorded at 1 min, 5 min, 10 min, 15 min, 30 min, 4 hours, and 8 hours for each replicate. A minimum of 3 replicates of 10 arthropods/cup/replicate were performed for each formulation. Data was modeled using a logarithmic regression to show the speed-to-kill of each formulation and highlight differences among treatment groups. Different spray amounts were used for each arthropod, depending on susceptibility, e.g.:
German roaches=10 sprays, 3 in […]

[6] = test system: maize weevils; test: Spray-cup testing, maize weevils (FIG. 3c); format: in vivo, maize weevil; details: Formula 13 2.5% w/v in water vs thymol 2.5% or 10% w/v
Description: as §1
Maize weevils=8 sprays, 3 in […]

[7] = test system: Giant foxtail (Setaria faberi); test: Soil drench herbicidal test, foxtail; format: in vivo; details: for % mortality: Foxtail, Rep 1 and 2
Description: Dandelion (Taraxacum officinale) seeds were obtained from the Department of Agronomy at Iowa State University. Individual seeds were sown for each pot (6″ wide×4.5″ deep) with approximately 800 mL of soil for each plan. Only plants that germinated were used for the study. Plants were treated 1-2 weeks post emergence. Plants were watered every 2-3 days as needed. Giant foxtail (Setaria faberi) seeds were obtained from the Department of Agronomy at Iowa State University. Three seeds were sown for each pot (6″ wide×4.5″ deep) with approximately 800 mL of soil for each plan. Only plants that germinated were used for the study. Plants were treated 1-2 weeks post emergence. Plants were watered every 2-3 days as needed.
Formulations of the various active ingredients were created using the disclosed pogostone derivatives and Triton-X 100 to aid in the solvation of the active ingredient. Formulations consisted of 0.5% active ingredient by weight. […] 40 mL of formulation (either […] active ingredient) was applied to each pot containing approximately 3-5 plants per pot at 2-3 weeks after emergence. Observations were performed 3 days and 2 weeks after soil drench to determine the effects of the treatments on the various types and stages of plants. Phytotoxicity is reported as percentage of total plants treated compared to a control treatment that was exposed to a similar formulation (without the active monoterpenoid derivatives). Technical grade 2,4-dichlorophenoxyacetic acid (2,4-D) was used as the commercial comparison for phytotoxicity. For its solvation, potassium hydroxide was introduced at a 1:1 molar ratio with 2,4-D to ensure this molecule would adequately dissolve in water.

[8] = test system: adult female Aedes aegypti mosquitoes; test: Formula 13 after pre-treatment with detoxification enzyme inhibitors (FIG. 10); format: in vivo
Description: Combinations of 2000 μg/mL Formula 13 and various detoxification enzyme inhibitors were applied to adult female mosquitoes in a volume of 0.2 μL to identify which detoxification pathway was most responsible for clearance of bioactive pogostone from the insect. A dose of 0.2 uL of either 1000 μg/mL of S,S,S-tributyl phosphorotrithioate (DEF) or 5000 μg/mL piperonyl butoxide (PBO) or 5000 μg/mL diethyl maleate (DEM) was applied 4 hours before a dose of 0.2 uL 2000 μg/mL of Formula 13 was applied to adult Aedes aegypti. […] The concentrations of inhibitors were chosen due to their inability to cause toxicity on their own at this application rate. The concentration of Formula 13 was chosen as the approximate LD25 of this compound against adult female Aedes aegypti mosquitoes. Combinations that caused statistically higher levels of mortality than pyrone 7 applied alone were considered informative. The goal of this exploration was to determine which processes might be most valuable in the detoxification of these derivatives.

CC(C)CCC(=O)c1c(O)c2ccccc2oc1=O [Formula 13]
ED50 ([1]; topical, 1 h, read-out: KD50 (ug/g mosquito)): 182 mg/kg
LD50 ([1]; topical, 24 h, read-out: LD50 (ug/g mosquito)): 119 mg/kg
insecticidal properties compared with natural pogostone, natural pyrethrins or terpenoids ([1]; words, refers to Table 1): possessed better insecticidal properties than natural pogostone
LD50 (ug/g fly) [2]: 5950 ug/g fly
SR (synergistic ratio) ([3]; LD50 alone versus in combination with PBO): 17.8
LD50 ([3]; topical, derivative alone or in combination with PBO): 5950 µg/g
mortality compared with thymol or control [4]: performed better than thymol
efficacy (mortality) compared with thymol [5]: outperformed thymol at all time points; also recorded: surpassed the efficacy of thymol at both an equal or higher concentration
efficacy (mortality) compared with thymol [6]: outperformed thymol at all time points; also recorded: performed better than thymol applied at an equal concentration and as well as thymol applied in a 10% concentration
phytotoxicity in foxtail ([7]; 40 mL of 0.5% soil drench, FIG. 12, words): significant phytotoxicity
% mortality ([7]; 2 weeks after soil drench - 40 mL of 0.5% solution): 100%
% mortality ([7]; 3 days after soil drench - 40 mL of 0.5% solution): 50%
toxicity of Formula 13 after DEF (inhibition of esterases) ([8]; 1000 μg/mL DEF 4 hours before 2000 μg/mL Formula 13, 0.2 uL each): significantly increased the toxicity of Formula 13
toxicity of Formula 13 after DEM (decreasing glutathione S-transferase activity) ([8]; 5000 μg/mL DEM 4 hours before 2000 μg/mL Formula 13, 0.2 uL each): second-most important enzyme system
toxicity of Formula 13 after PBO (inhibition of monooxygenases) ([8]; 5000 μg/mL PBO 4 hours before 2000 μg/mL Formula 13, 0.2 uL each): most significant for increasing the toxicity of Formula 13
approximate LD25 (concentration applied) ([8]; 0.2 uL applied topically to adult female Aedes aegypti): ~2000 µg/mL

Reference: patent US20200024246A1, “POGOSTONE DERIVATIVES AND METHODS OF USING THE SAME” (Hamyard Associates LLC, priority 2018, published 2020)
